{"source": "patent US8716530B2", "about": "“Facially amphiphilic polyaryl and polyarylalkynyl polymers and oligomers and uses thereof” (The Trustess of the University of Pennsylvania, priority 2004, dated 2014)", "key": {"[1]": {"test_system": "Bacillus subtilis", "assay_type": "cell-based"}, "[2]": {"test_system": "Klebsiella aerogenes", "assay_type": "cell-based"}, "[3]": {"test_system": "Klebsiella pneumoniae", "assay_type": "cell-based"}, "[4]": {"test_system": "Listeria monocytogenes", "assay_type": "cell-based"}, "[5]": {"test_system": "Moraxella catarrhalis", "assay_type": "cell-based"}, "[6]": {"test_system": "Neisseria sicca", "assay_type": "cell-based"}, "[7]": {"test_system": "Proteus mirabilis", "assay_type": "cell-based"}, "[8]": {"test_system": "Proteus vulgaris", "assay_type": "cell-based"}, "[9]": {"test_system": "Serratia marcescens", "assay_type": "cell-based"}, "[10]": {"test_system": "Staphylococcus epidermidis", "assay_type": "cell-based"}, "[11]": {"test_system": "Streptococcus gordonii", "assay_type": "cell-based"}, "[12]": {"test_system": "B. anthracis", "test": "microbe, parasite or virus in culture", "assay_type": "cell-based, Bacillus anthracis"}, "[13]": {"test_system": "B. anthracis", "test": "microbe, parasite or virus in culture", "assay_type": "cell-based", "conditions": "Bacillus anthracis"}, "[14]": {"test_system": "Staphylococcus aureus", "test": "MIC100, control microbial agent, NCCLS guidelines", "assay_type": "cell-based", "conditions": "strain ATCC29213, control organism (Table 5), read-out: MIC100 S. aureus ATCC29213"}, "[15]": {"test_system": "E. coli", "test": "MIC100, modified NCCLS microbroth dilution (Table 6)", "assay_type": "cell-based", "conditions": "Escherichia coli"}, "[16]": {"test_system": "S. aureus and methicillin-resistant S. aureus (MRSA)", "test": "MIC100, modified NCCLS microbroth dilution (Table 6)", "assay_type": "cell-based", "conditions": "Staphylococcus aureus"}, "[17]": {"test_system": "Candida albicans", "test": "MIC100, clinical isolates of hospital-acquired pathogens (Table 7)", "assay_type": "cell-based", "conditions": "one table line per isolate, RPMI synthetic medium, in µg/mL"}, "[18]": {"test_system": "Streptococcus pneumoniae", "test": "MIC100, clinical isolates of hospital-acquired pathogens (Table 7)", "assay_type": "cell-based"}, "[19]": {"test_system": "S. aureus", "assay_type": "cell-based", "conditions": "S. aureus passaged at 0.5x MIC100; by passage 16 (17 consecutive passages)"}, "[20]": {"test_system": "Aspergillus fumigatus", "test": "Antifungal MIC/MFC, NCCLS M38-A", "assay_type": "cell-based", "description": "(§1) MIC endpoints were determined for A. fumigatus, P. funiculosum, C. globosum and T. virens according to current NCCLS guidelines defined for testing A. fumigatus (NCCLS M38-A, 2002). […] Amphotericin B was included in the screen with C. albicans as a positive control. All MIC testing was done in 96 well microtiter panels using RPMI 1640 (with glutamine and without bicarbonate) broth as a growth media. Incubation was at 35° C., and growth was read at 48, 72, (and for some slow growing fungal species, 96 hours). […] MFC (minimal fungicidal concentrations) endpoints were calculated using a modified methodology based on the NCCLS defined methodology for measuring minimal bactericidal concentrations (MBC). Experimentation to calculate MFCs was undertaken only for those organisms for which an MIC endpoint was satisfactorily calculated. MFCs are defined as the concentration required to reduce the number of viable organisms by at least 90%."}, "[21]": {"test_system": "Chaetomium globosum", "test": "Antifungal MIC/MFC, NCCLS M38-A", "assay_type": "cell-based", "description": "as §1"}, "[22]": {"test_system": "Penicillium funiculosum", "test": "Antifungal MIC/MFC, NCCLS M38-A", "assay_type": "cell-based", "description": "as §1"}, "[23]": {"test_system": "Trichoderma virens", "test": "Antifungal MIC/MFC, NCCLS M38-A", "assay_type": "cell-based", "description": "as §1"}, "[24]": {"test_system": "Lovenox inhibition of Factor Xa (FXa) activity", "test": "Chromogenic FXa assay: antagonism of Lovenox inhibition of Factor Xa", "assay_type": "biochemical", "conditions": "fixed concentration of Lovenox, chromogenic substrate S-2765", "description": "To assess the potential of the phenylalkynyl oligomers to act as antagonists of the low molecular weight heparins (LMWH), Compound 3 was assayed for its ability to antagonize the inhibition of Factor Xa (FXa) activity by the LMWH Lovenox was determined for Compound 3. Briefly, FXa activity in the presence of Lovenox and inhibitor was measured in a chromogenic assay using reagents purchased from DiaPharma. […] In the assay setup for Schild-plot analysis (KB determination), varying concentrations of Lovenox were incubated with AT for 5 minutes. Different concentrations of inhibitor were added to each row of wells, to construct curves of fixed inhibitor concentration, and lightly shaken and incubated for 20 minutes. FXa was then added and reaction was shaken and incubated for 10 minutes. The substrate (S-2765) was then added to initiate the clotting cascade and the 96-well plate was then shaken and read every 30 seconds for 7 minutes at 405 nm on a ThermoLabsystems Multiskan Spectrum. The single curve Lovenox titration experiments (IC50 determination) consisted of the same procedure, but with a fixed concentration of Lovenox (determined by a titration curve in the absence of inhibitor). The analysis of each curve was performed using GraphPad Prism version 4.00 for Windows."}, "[25]": {"test_system": "human erythrocytes", "test": "Hemolysis of human erythrocytes (HC50)"}, "[26]": {"test_system": "B. subtilis", "test": "Modified NCCLS microbroth dilution MIC assay", "conditions": "Bacillus subtilis"}, "[27]": {"test_system": "K. pneumonia", "test": "Modified NCCLS microbroth dilution MIC assay", "conditions": "Klebsiella pneumoniae, read-out: K. pneumonia MIC"}, "[28]": {"conditions": "concentration reducing viable organisms by at least 90%"}}, "note": "Values joined by “and” are separate entries in the source; they are usually repeats but may differ in a detail not shown here. Equal entries are not always repeated. Where two headings read alike, the source gives them in different places.", "data": [{"smiles": "NCCc1cc(Br)cc(C#Cc2cccc(C#Cc3cc(Br)cc(CCN)c3)c2)c1", "note": "[Compound 3]", "values": [{"measurement": "MIC100 Bacillus subtilis", "setting": "[1]", "result": 1.7, "unit": "µg/mL"}, {"measurement": "MIC100 Klebsiella aerogenes", "setting": "[2]", "result": 3.4, "unit": "µg/mL"}, {"measurement": "MIC100 Klebsiella pneumoniae", "setting": "[3]", "result": 1.7, "unit": "µg/mL"}, {"measurement": "MIC100 Listeria monocytogenes", "setting": "[4]", "result": 1.7, "unit": "µg/mL"}, {"measurement": "MIC100 Moraxella catarrhalis", "setting": "[5]", "result": 0.84, "unit": "µg/mL"}, {"measurement": "MIC100 Neisseria sicca", "setting": "[6]", "result": 3.4, "unit": "µg/mL"}, {"measurement": "MIC100 Proteus mirabilis", "setting": "[7]", "result": "> 6.6", "unit": "µg/mL"}, {"measurement": "MIC100 Proteus vulgaris", "setting": "[8]", "result": 3.4, "unit": "µg/mL"}, {"measurement": "MIC100 Serratia marcescens", "setting": "[9]", "result": 3.4, "unit": "µg/mL"}, {"measurement": "MIC100 Staphylococcus epidermidis", "setting": "[10]", "result": 0.8, "unit": "µg/mL"}, {"measurement": "MIC100 Streptococcus gordonii", "setting": "[11]", "result": 1.7, "unit": "µg/mL"}, {"measurement": "MIC", "setting": "[12]; Bacillus anthracis, 24 h, read-out: MIC100 B. anthracis (24 hr)", "result": 1, "unit": "µg/mL"}, {"measurement": "Time course of growth inhibition of Bacillus anthracis", "setting": "[12]; growth recorded at 2 hour intervals over 24 hours (FIG. 3)", "result": "complete inhibition of growth at early and late time points"}, {"measurement": "MIC", "setting": "[13]; read-out: MIC100 B. anthracis 127", "result": 1, "unit": "µg/mL"}, {"measurement": "MIC", "setting": "[13]; read-out: MIC100 B. anthracis 1099", "result": 1, "unit": "µg/mL"}, {"measurement": "MIC", "setting": "[13]; read-out: MIC100 B. anthracis 7611R", "result": 2, "unit": "µg/mL"}, {"measurement": "MIC", "setting": "[13]; read-out: MIC100 B. anthracis A3", "result": 1, "unit": "µg/mL"}, {"measurement": "MIC", "setting": "[13]; read-out: MIC100 B. anthracis A19", "result": 1, "unit": "µg/mL"}, {"measurement": "MIC", "setting": "[13]; read-out: MIC100 B. anthracis A58", "result": 1, "unit": "µg/mL"}, {"measurement": "MIC", "setting": "[13]; read-out: MIC100 B. anthracis A60", "result": 1, "unit": "µg/mL"}, {"measurement": "MIC", "setting": "[13]; read-out: MIC100 B. anthracis A73", "result": 1, "unit": "µg/mL"}, {"measurement": "MIC", "setting": "[13]; read-out: MIC100 B. anthracis A74", "result": 2, "unit": "µg/mL"}, {"measurement": "MIC", "setting": "[13]; read-out: MIC100 B. anthracis AC1", "result": 1, "unit": "µg/mL"}, {"measurement": "MIC", "setting": "[13]; read-out: MIC100 B. anthracis RA3R", "result": 1, "unit": "µg/mL"}, {"measurement": "MIC", "setting": "[13]; read-out: MIC100 B. anthracis Vollum", "result": 2, "unit": "µg/mL"}, {"measurement": "MIC", "setting": "[14]", "result": 2, "unit": "µg/mL"}, {"measurement": "MIC", "setting": "[15]; strain ATCC25922, read-out: MIC100 E. coli ATCC25922", "result": 2, "unit": "µg/mL"}, {"measurement": "MIC", "setting": "[15]; strain OC2530, read-out: MIC100 E. coli OC2530", "result": 0.5, "unit": "µg/mL"}, {"measurement": "MIC", "setting": "[16]; ATCC 29213 / MRSA, strain ATCC29213 (Table 6), read-out: MIC100 S. aureus ATCC29213", "result": 0.5, "unit": "µg/mL"}, {"measurement": "MIC", "setting": "[16]; MRSA, methicillin-resistant S. aureus OC2878, read-out: MIC100 MRSA OC2878", "result": 0.5, "unit": "µg/mL"}, {"measurement": "mic (MIC100) Candida albicans", "setting": "[17]", "result": "0.5 and 1"}, {"measurement": "mic (MIC100) Streptococcus pneumoniae", "setting": "[18]; clinical isolates, no phenotype given, Mueller Hinton+2-5% lysed horse blood, in µg/mL", "result": 2}, {"measurement": "mic (MIC100) Streptococcus pneumoniae ATCC 49619", "setting": "[18]; control strain ATCC 49619", "result": 2, "unit": "µg/mL"}, {"measurement": "mic (MIC100) Streptococcus pneumoniae PEN-R", "setting": "[18]; penicillin-resistant clinical isolates, Mueller Hinton+2-5% lysed horse blood, in µg/mL", "result": "2 and 1"}, {"measurement": "increase in MIC on serial passage", "setting": "[19]", "result": "No consistent increase in the MIC"}, {"measurement": "MIC Aspergillus fumigatus", "setting": "[20]; RPMI 1640, 35° C.", "result": "32/32"}, {"measurement": "MFC Aspergillus fumigatus", "setting": "[20]; [28]", "result": "32/32"}, {"measurement": "MIC Chaetomium globosum", "setting": "[21]; RPMI 1640, 35° C.", "result": 0.5, "unit": "µg/mL"}, {"measurement": "MFC Chaetomium globosum", "setting": "[21]; [28]", "result": 8, "unit": "µg/mL"}, {"measurement": "MIC Penicillium funiculosum", "setting": "[22]; RPMI 1640, 35° C.", "result": 1, "unit": "µg/mL"}, {"measurement": "MFC Penicillium funiculosum", "setting": "[22]; [28]", "result": 2, "unit": "µg/mL"}, {"measurement": "MIC Trichoderma virens", "setting": "[23]; RPMI 1640, 35° C.", "result": "32/32"}, {"measurement": "MFC Trichoderma virens", "setting": "[23]; [28]", "result": "32/32"}, {"measurement": "IC50", "setting": "[24]", "result": 5.07, "unit": "µM"}, {"measurement": "Hemolysis HC50", "setting": "[25]; human erythrocytes, one hour incubation, 50% hemoglobin release, Table 1", "result": 75, "unit": "µg/mL"}, {"measurement": "HC50", "setting": "[25]; human erythrocytes, Table 2", "result": 75, "unit": "µg/mL"}, {"measurement": "Selectivity HC50/MIC E.coli", "setting": "[25]; ratio of HC50 to E. coli MIC", "result": 88.2}, {"measurement": "MIC", "setting": "[26]; read-out: B. subtilis MIC", "result": 1.6, "unit": "µg/mL"}, {"measurement": "MIC90", "setting": "[26]; read-out: MIC90 B. subtilis", "result": 1.6, "unit": "µg/mL"}, {"measurement": "MIC", "setting": "[27]", "result": 1.7, "unit": "µg/mL"}]}]}
